Assay results: patent EP4389751A1, “HETEROCYCLIC COMPOUNDS AND USES THEREOF” (Kumquat Biosciences Inc., priority 2021, dated 2024)
Where two headings read alike, the source gives them in different places.

Assays:
K-Ras G12S = target: T1, K-Ras G12S (Homo sapiens, UniProt P01116, G12S); assay: HTRF assay of the K-Ras / SOS1 interaction; type: biochemical; conditions: IC50 (against K-Ras G12D) to IC50 (against K-Ras G12S)
T1 construct: made in house; host or cells: E. coli (e.g., BL21 (DE3))
Procedure, shortened: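 Compounds (duplicates, 10 µM to 0.01 µM) were incubated ≥~10 min with Eu-labelled GST-K-Ras G12S and XL665-labelled His-hSOS1 in HEPES pH 7.4 buffer containing NaCl, DTT, BSA and Igepal. Disruption measured as HTRF emission ratio 665/620 nm, fitted to IC50.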

GP2D cells = assay: Cell proliferation assay (CellTiter-Glo), K-Ras G12D cells; type: cell-based; conditions: read-out: Inhibition of GP2D Cells (IC50)
Procedure, shortened: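 CellTiter-Glo luminescence, taken roughly 5 days after dosing, measured growth of G12D-mutant GP2D cells in DMEM/2 mM glutamine/10% FBS. Compound dilution series (e.g., 9 points, 3-fold) added the day after plating. Four-parameter fitting gave IC50.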

[1] = target: T2, KRAS protein (His-tagged GDP-loaded G12S 1-169) (Homo sapiens, UniProt P01116, G12S); assay: Covalent modification of KRAS protein, intact-protein LC-MS; type: binding; conditions: 24hrs at room temperature, KRAS protein ~2 µM
T2 construct: His-tagged GDP-loaded G12S 1-169
Procedure, shortened: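 Percent covalent modification derives from deconvoluted intact-mass intensities of compound-adducted versus unmodified KRAS, measured by LC-ESI-MS. Before analysis, ~2 µM GDP-loaded His-KRAS 1-169 was exposed to compound for 24 h at room temperature and acidified with formic acid.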

SMILES	Ratio of IC50 KRAS G12D vs. IC50 KRAS G12S (K-Ras G12S)	IC50 (GP2D cells; GP2D cells (K-Ras G12D))	% G12S Modification at 24 hr. [1]	IC50 (GP2D cells; GP2d)
N#Cc1c(N)sc2c(F)ccc(-c3c(Cl)cc4c(N5CCN(C(=O)n6cncn6)CC(F)(F)C5)nc(OC[C@@]56CCCN5C[C@H](F)C6)nc4c3F)c12 [Compound A280, 2-amino-4-(6-chloro-4-(6,6-difluoro-4-(1H-1,2,4-triazole-1-carbonyl)-1,4-diazepan-1-yl)-8-fluoro-2-(((2R,7aS)-2-fluorotetrahydro-1H-pyrrolizin-7a(5H)-yl)methoxy)quinazolin-7-yl)-7-fluorobenzo[b]thiophene-3-carbonitrile]	A (A: indicates that the ratio of IC50 against KrasG12D vs. IC50 against KrasG12S is 1-fold or greater)	≤ 1000 nM	+++ (+++ indicates greater than 20% labelling)	
N#Cc1c(N)sc2c(F)ccc(-c3c(Cl)cc4c(N5CCC6C5CCCN6C(=O)n5cncn5)nc(OC[C@@]56CCCN5C[C@H](F)C6)nc4c3F)c12 (stereo partly drawn) [Compound A181, 4-(4-(4-(1H-1,2,4-triazole-1-carbonyl)octahydro-1H-pyrrolo[3,2-b]pyridin-1-yl)-6-chloro-8-fluoro-2-(((2R,7aS)-2-fluorotetrahydro-1H-pyrrolizin-7a(5H)-yl)methoxy)quinazolm-7-yl)-2-amino-7-fluorobenzo[b]thiophene-3-carbonitrile]	A (A: indicates that the ratio of IC50 against KrasG12D vs. IC50 against KrasG12S is 1-fold or greater)	≤ 1000 nM	+++ (+++ indicates greater than 20% labelling)	
N#Cc1c(N)sc2c(F)ccc(-c3c(Cl)cc4c(N5CCOC6(CN(C(=O)n7cncn7)C6)C5)nc(OC[C@@]56CCCN5C[C@H](F)C6)nc4c3F)c12 [Compound A132, 4-(4-(2-(1H-1,2,4-triazole-1-carbonyl)-5-oxa-2,8-diazaspiro[3.5]nonan-8-yl)-6-chloro-8-fluoro-2-(((2R,7aS)-2-fluorotetrahydro-1H-pyrrolizin-7a(5H)-yl)methoxy)quinazolin-7-yl)-2-amino-7-fluorobenzo[b]thiophene-3-carbonitrile]	A (A: indicates that the ratio of IC50 against KrasG12D vs. IC50 against KrasG12S is 1-fold or greater)	1000 to 10000 nM	+++ (+++ indicates greater than 20% labelling)	
Nc1nc2c(-c3c(Cl)cc4c(N[C@H]5C[C@H]6CC[C@@H](C5)N6C(=O)n5cncn5)nc(OC[C@@]56CCCN5C[C@H](F)C6)nc4c3F)ccc(F)c2s1 [Compound A207, ((1R,3r,5S)-3-((7-(2-amino-7-fluorobenzo[d]thiazol-4-yl)-6-chloro-8-fluoro-2-(((2R,7aS)-2-fluorotetrahydro-1H-pyrrolizin-7a(5H)-yl)methoxy)quinazolin-4-yl)amino)-8-azabicyclo[3.2.1]octan-8-yl)(1H-1,2,4-triazol-1-yl)methanone]	A (A: indicates that the ratio of IC50 against KrasG12D vs. IC50 against KrasG12S is 1-fold or greater)		+++ (+++ indicates greater than 20% labelling)	1000 to 10000 nM
N#Cc1c(N)sc2c(F)ccc(-c3c(Cl)cc4c(N5CCCC6(CCN(C(=O)n7cncn7)C6)C5)nc(OC[C@@]56CCCN5C[C@H](F)C6)nc4c3F)c12 (stereo partly drawn) [Compound A269, 4-(4-(2-(1H-1,2,4-triazole-1-carbonyl)-2,7-diazaspiro[4.5]decan-7-yl)-6-chloro-8-fluoro-2-(((2R,7aS)-2-fluorotetrahydro-1H-pyrrolizin-7a(5H)-yl)methoxy)quinazolin-7-yl)-2-amino-7-fluorobenzo[b]thiophene-3-carbonitrile]	A (A: indicates that the ratio of IC50 against KrasG12D vs. IC50 against KrasG12S is 1-fold or greater)	1000 to 10000 nM	++ (++ indicates between about 1%- 20% labelling)	
N#Cc1cnn(C(=O)N2CCN(c3nc(OC[C@@]45CCCN4C[C@H](F)C5)nc4c(F)c(-c5ccc(F)c6sc(N)nc56)c(Cl)cc34)CC(F)(F)C2)c1 [Compound A126, 1-(4-(7-(2-amino-7-fluorobenzo[d]thiazol-4-yl)-6-chloro-8-fluoro-2-(((2R,7aS)-2-fluorotetrahydro-1H-pyrrolizin-7a(5H)-yl)methoxy)quinazolin-4-yl)-6,6-difluoro-1,4-diazepane-1-carbonyl)-1Hpyrazole-4-carbonitrile]	A (A: indicates that the ratio of IC50 against KrasG12D vs. IC50 against KrasG12S is 1-fold or greater)	1000 to 10000 nM	+++ (+++ indicates greater than 20% labelling)	
N#CC[C@H]1CN(c2nc(OC[C@@]34CCCN3C[C@H](F)C4)nc3c(F)c(-c4ccc(F)c5sc(N)nc45)c(Cl)cc23)CCN1C(=O)n1cncn1 [Compound A145, 2-((2S)-4-(7-(2-amino-7-fluorobenzo[d]thiazol-4-yl)-6-chloro-8-fluoro-2-(((2R,7aS)-2-fluorotetrahydro-1H-pyrrolizin-7a(5H)-yl)methoxy)quinazolin-4-yl)-1-(1H-1,2,4-triazole-1-carbonyl)piperazin-2-yl)acetonitrile]	A (A: indicates that the ratio of IC50 against KrasG12D vs. IC50 against KrasG12S is 1-fold or greater)	1000 to 10000 nM	+++ (+++ indicates greater than 20% labelling)	
Nc1nc2c(-c3c(Cl)cc4c(N5CCC6(CN(C(=O)n7cncn7)C6)C5)nc(OC[C@@]56CCCN5C[C@H](F)C6)nc4c3F)ccc(F)c2s1 [Compound A201, (6-(7-(2-amino-7-fluorobenzo[d]thiazol-4-yl)-6-chloro-8-fluoro-2-(((2R,7aS)-2-fluorotetrahydro-1H-pyrrolizin-7a(5H)-yl)methoxy)quinazolm-4-yl)-2,6-diazaspiro[3.4]octan-2-yl)(1H-1,2,4-triazol-1-yl)methanone]	A (A: indicates that the ratio of IC50 against KrasG12D vs. IC50 against KrasG12S is 1-fold or greater)	1000 to 10000 nM	+++ (+++ indicates greater than 20% labelling)	
Nc1nc2c(-c3c(Cl)cc4c(N5CC6(CN(C(=O)n7cncn7)CCO6)C5)nc(OC[C@@]56CCCN5C[C@H](F)C6)nc4c3F)ccc(F)c2s1 [Compound A268, (2-(7-(2-amino-7-fluorobenzo[d]thiazol-4-yl)-6-chloro-8-fluoro-2-(((2R,7aS)-2-fluorotetrahydro-1H-pyrrolizin-7a(5H)-yl)methoxy)quinazolin-4-yl)-5-oxa-2,8-diazaspiro[3.5]nonan-8-yl)(1H-1,2,4-triazol-1-yl)methanone]	A (A: indicates that the ratio of IC50 against KrasG12D vs. IC50 against KrasG12S is 1-fold or greater)	1000 to 10000 nM	+++ (+++ indicates greater than 20% labelling)	
N#Cc1c(N)sc2c(F)ccc(-c3c(Cl)cc4c(N5CC6OCCN(C(=O)n7cncn7)C6C5)nc(OC[C@@]56CCCN5C[C@H](F)C6)nc4c3F)c12 (stereo partly drawn) [Compound A227, 4-(4-(4-(1H-1,2,4-triazole-1-carbonyl)hexahydropyrrolo[3,4-b][1,4]oxazin-6(2H)-yl)-6-chloro-8-fluoro-2-(((2R,7aS)-2-fluorotetrahydro-1H-pyrrolizin-7a(5H)-yl)methoxy)quinazolin-7-yl)-2-amino-7-fluorobenzo[b]thiophene-3-carbonitrile]	A (A: indicates that the ratio of IC50 against KrasG12D vs. IC50 against KrasG12S is 1-fold or greater)	1000 to 10000 nM	+++ (+++ indicates greater than 20% labelling)	
